Consider 23 compounds from PubChem BioAssay AID602147 (Vanderbilt Specialized Chemistry Center, 2011).

For the test, the target named is Phospholipase D2 (Homo sapiens) (UniProt O14939). The experiment in a line: cellular phospholipase D2 inhibition IC50 – cell-based, dose response (AID 602147). The conditions noted are these: cellular PLD2 activity assay, concentration response.
Sequence of Phospholipase D2 (Homo sapiens) (O14939 whole entry, looked up): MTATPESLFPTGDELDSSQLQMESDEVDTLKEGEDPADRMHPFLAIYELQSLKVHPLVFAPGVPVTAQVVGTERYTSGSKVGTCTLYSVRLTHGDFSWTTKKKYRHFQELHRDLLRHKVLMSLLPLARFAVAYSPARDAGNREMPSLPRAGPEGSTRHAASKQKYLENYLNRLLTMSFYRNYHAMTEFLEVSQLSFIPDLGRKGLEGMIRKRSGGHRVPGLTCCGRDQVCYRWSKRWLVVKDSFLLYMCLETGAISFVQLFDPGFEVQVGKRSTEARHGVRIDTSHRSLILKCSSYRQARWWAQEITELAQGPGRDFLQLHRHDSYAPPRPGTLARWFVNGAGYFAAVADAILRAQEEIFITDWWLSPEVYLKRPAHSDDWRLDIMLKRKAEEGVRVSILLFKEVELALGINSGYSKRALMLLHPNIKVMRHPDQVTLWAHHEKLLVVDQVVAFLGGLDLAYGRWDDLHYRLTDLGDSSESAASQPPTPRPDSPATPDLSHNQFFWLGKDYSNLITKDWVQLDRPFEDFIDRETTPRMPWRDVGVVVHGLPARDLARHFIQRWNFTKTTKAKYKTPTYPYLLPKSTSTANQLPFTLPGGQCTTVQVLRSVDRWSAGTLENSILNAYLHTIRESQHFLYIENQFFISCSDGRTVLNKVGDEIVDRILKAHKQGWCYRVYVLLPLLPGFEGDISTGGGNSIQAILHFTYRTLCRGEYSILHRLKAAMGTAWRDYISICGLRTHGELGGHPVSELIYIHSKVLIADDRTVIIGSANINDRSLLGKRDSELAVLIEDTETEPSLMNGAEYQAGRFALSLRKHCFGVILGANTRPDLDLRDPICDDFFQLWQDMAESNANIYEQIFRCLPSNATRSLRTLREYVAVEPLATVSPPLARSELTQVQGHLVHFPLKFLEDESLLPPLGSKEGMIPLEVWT
Sequence of Phospholipase D2 (Homo sapiens) (O14939 whole entry, looked up): as above
Take `O=C(NCCN1CCC2(CC1)C(=O)NCN2c1ccc(Cl)cc1)c1cc2cc(F)ccc2[nH]1`: the IC50 is 50 nM.

Consider `O=C(NCCN1CCC2(CC1)C(=O)NCN2c1cccc(Cl)c1)c1cc2cc(F)ccc2[nH]1`, for which the IC50 is 73 nM.

As for `O=C(NCCN1CCC2(CC1)C(=O)NCN2c1ccc(F)cc1)c1ccc(F)cc1`, the IC50 is 610 nM.

For the compound `O=C(NCCN1CCC2(CC1)C(=O)NCN2c1ccccc1)c1cc2ccccc2s1`, the IC50 was 30 nM.

On to `O=C(NCCN1CCC2(CC1)C(=O)NCN2c1ccc(F)cc1)c1cnc2ccccc2c1`, for which the IC50 is 40 nM.

On to `O=C(NCCN1CCC2(CC1)C(=O)NCN2c1cccc(F)c1)c1cc2cc(F)ccc2[nH]1`, for which the IC50 is 25 nM.

In the case of `COc1cc(C(=O)NCCN2CCC3(CC2)C(=O)NCN3c2ccccc2)ccc1N`, the IC50 is 550 nM.

Regarding `O=C(NCCN1CCC2(CC1)C(=O)NCN2c1ccc(Cl)cc1)c1ccc2ccccc2c1`, the IC50 is 655 nM.

In the case of `O=C(NCCN1CCC2(CC1)C(=O)NCN2c1ccc(Br)cc1)c1ccc(F)cc1`, the IC50 is 8000 nM.

Turning to `O=C(NCCN1CCC2(CC1)C(=O)NCN2c1cccc(F)c1)c1cnc2ccccc2c1`, the IC50 is 63 nM.

On to `O=C(C#Cc1ccccc1)NCCN1CCC2(CC1)C(=O)NCN2c1ccccc1`, for which the IC50 is 1640 nM.

Consider `O=C(NCCN1CCC2(CC1)C(=O)NCN2c1ccc(F)cc1)c1ccc2ccccc2c1`, for which the IC50 is 80 nM.

As to `O=C(NCCN1CCC2(CC1)C(=O)NCN2c1cccc(Cl)c1)c1ccc2ccccc2c1`, the IC50 is 290 nM.

Turning to `O=C(NCCN1CCC2(CC1)C(=O)NCN2c1ccc(Br)cc1)c1ccc2ccccc2c1`, the IC50 was 350 nM.

Regarding `O=C(NCCN1CCC2(CC1)C(=O)NCN2c1cccc(Cl)c1)c1cnc2ccccc2c1`, the IC50 was 165 nM.

As for `O=C(NCCN1CCC2(CC1)C(=O)NCN2c1ccc(Br)cc1)c1cnc2ccccc2c1`, the IC50 is 360 nM.

Consider `O=C(NCCN1CCC2(CC1)C(=O)NCN2c1ccc(Cl)cc1)c1ccc(F)cc1`, for which the IC50 was 5670 nM.

On to `C[C@@H](CN1CCC2(CC1)C(=O)NCN2c1cccc(F)c1)NC(=O)c1ccc2ccccc2c1`, for which the IC50 is 60 nM.

As to `O=C(NCCN1CCC2(CC1)C(=O)NCN2c1cccc(Cl)c1)c1ccc(F)cc1`, the IC50 is 70 nM.

For the compound `O=C(NCCN1CCC2(CC1)C(=O)NCN2c1cccc(F)c1)c1ccc(F)cc1`, the IC50 is 6690 nM.

Consider `O=C(NCCN1CCC2(CC1)C(=O)NCN2c1ccc(Cl)cc1)c1cnc2ccccc2c1`, for which the IC50 was 200 nM.

On to `O=C(NCCN1CCC2(CC1)C(=O)NCN2c1ccc(Br)cc1)c1cc2cc(F)ccc2[nH]1`, for which the IC50 is 100 nM.

Turning to `O=C(NCCN1CCC2(CC1)C(=O)NCN2c1ccc(F)c(F)c1)c1ccc(F)cc1`, the IC50 is 660 nM.
